Read-outs that look alike come from different tables or passages of the source.
Experiments:
[1] = system: HIV-1 replication in H9 cells; test: HIV-1 replication inhibition in acutely infected H9 lymphocytes (p24 antigen ELISA); type: cell-based, HIV-1 (IIIB strain)
Description: (§1) HIV inhibition assay. The HIV inhibition was measured as described herein. Briefly, H9 cells, a T cell line, (3.5×10^6 cells/ml) were incubated in the presence or absence of HIV-1 (IIIB strain, 0.01-0.1 TCID50 /cell) for 1 hour at 37° C. Cells were washed thoroughly and resuspended at a final concentration of 2×10^5 cells/ml in the presence or absence of compound. After incubation for 3-4 days at 37° C., the cell density of uninfected cultures was determined by cell count to assess toxicity of the drug. An aliquot of each cell-free supernatant was assayed by p24 antigen ELISA to quantitate the amount of HIV-1 present in the infected cultures. Test compounds were considered to be active at a particular concentration if p24 antigen levels were less than 70% of infected, untreated controls and were nontoxic to uninfected H9 cells.
(§2) HIV Growth Inhibition Assay: The T cell line, H9, and the promonocytic cell line, U937, were maintained separately in continuous culture with complete medium (RPMI 1640 and […] fetal calf serum (FCS) at 5% CO2 and 37° C. Cell lines were used in experiments only when in log phase of growth; whereas, uninfected peripheral blood mononuclear cells (PBMCs) were first stimulated with PHA (1 μg/ml) for 3 days. All cell targets were incubated with HIV-1 (IIIB isolate, TCID50 10 ^4 IU/mi, at a multiplicity of infection of 0.1-0.01 IU/cell) for 1 hour at 37° C. and 5% CO2. The cell lines and PBMCs were washed thoroughly to remove unabsorbed virions and resuspended at 4×10^5 cells/ml in complete medium or complete medium with 10% v/v interleukin […] IL-2, respectively. Aliquots ( ml) were placed in wells of 24-well culture plates containing an equal volume of test compound (diluted in the appropriate culture medium). After incubation for 4 days at 37° C., cell density of uninfected cultures was determined by counting cells in a Coulter counter to assess toxicity of the test compound. A p24 antigen ELISA assay was used to determine the level of virus released in the medium of the HIV-infected cultures. The p24 antigen assay uses a HIV-1 anti-p24 specific monoclonal antibody as the capture antibody coated-on 96-well plates. Following a sample incubation period, rabbit serum containing antibodies for HIV-1 p24 is used to tag any p24 "captured" onto the microtiter well surface. Peroxidase conjugated goat anti-rabbit serum is then used to tag HIV-1 p24 specific rabbit antibodies which have complexed with captured p24. […] The cut-off for the p24 ELISA assay is 12. pg/ml. P24 in the culture medium was quantitated against a standard curve containing known amounts of p24. The effective (EC50) and inhibitory (IC50) concentrations (for anti-HIV activity and cytotoxicity, respectively) were determined graphically. Both the EC50 and IC50 values were calculated by plotting drug concentration versus percent inhibition, and then identifying a 50% inhibition value from the graph.

uninfected H9 cells = test: Toxicity to uninfected H9 cells (cell growth); type: cell-based; settings: Homo sapiens
Description: as §1, §2

[2] = system: chronically HIV-1 infected ACH-2 cells; test: Virus expression from chronically HIV-1 infected T cell line ACH-2 (p24 antigen ELISA); type: cell-based; settings: ACH-2 cells; 4320 min
Description: Effects of suksdorfin analogs on Chronically HIV-1 infected cells. The experimental design is as follows: The phorbol ester, PMA (10^-8 M) and various concentrations of suksdorfin were either added or not added to both the chronically HIV-1 infected T cell line (ACH-2) and to the chronically HIV-1 infected monocytic cell line (U1). Cell-free supernatant was collected 72 hours post culture for p24 antigen ELISA.
Results (Table 11) from adding compound 16 to the chronically HIV-infected T cell line, ACH-2, according to methods in above examples. ACH-2 are a chronically HIV-1 infected T cell line. It was derived from A3.01 cells which is a subclone of the CEM cell line. The data below indicates the following points:
Chronically HIV-1 infected cell lines. HIV-1 chronically infected T cell line, ACH-2^12, and HIV-1 chronically infected promonocytic cell line, U1 13, were continuously maintained in RPMI 1640 with 10% fetal calf serum (FCS). For experiments, the cell lines were only used in the […] of growth. Cells (0.5×10^6 cells/well) and either various concentrations of suksdorfin or medium alone were added to 24-well plates in the presence or absence of PMA (10^-8 M). After 72 hours at 37° C. and 5% CO2, an aliquot of the cell-free supernatants were collected and analyzed for p24 antigen by ELISA (see below for details of p24 antigen ELISA).

[3] = Human immunodeficiency virus 1, H9, Table 3, H9 lymphocytes, read-out: EC50
[4] = H9, Table 3, H9 lymphocytes, read-out: IC50
[5] = Human immunodeficiency virus 1, H9, acutely infected H9 cells, concentration which inhibits viral replication by 50%, Inactive = No suppression of HIV-1 replication in H9 cells, read-out: EC50
[6] = Human immunodeficiency virus 1, Table 14, concentration which inhibits viral replication by 50%, Inactive = No suppression of HIV-1 replication in H9 cells, read-out: IC50 (μM)^b
[7] = IC50 for cell growth inhibition divided by EC50 for HIV inhibition, H9
[8] = H9, Table 14, concentration which inhibits uninfected cell growth by 50%, read-out: IC50 (μM)^a
[9] = H9, concentration which inhibits uninfected cell growth by 50%, read-out: IC50
[10] = Human immunodeficiency virus 1, H9, Table 17, acutely infected H9 lymphocytes, read-out: EC50
[11] = H9, Table 17, uninfected H9 cell growth, read-out: IC50
[12] = Table 14, concentration which inhibits viral replication by 50%, Inactive = No suppression of HIV-1 replication in H9 cells
[13] = acutely infected H9 cells, concentration which inhibits viral replication by 50%, Inactive = No suppression of HIV-1 replication in H9 cells

Compound: CC(=O)OC1Cc2c(ccc3ccc(=O)oc23)OC1(C)C (racemic) [Compound 25]
- EC50 [1, 3]: > 69 µM

Compound: CC(C)CC(=O)OC1Cc2c(ccc3ccc(=O)oc23)OC1(C)C (racemic) [Compound 26]
- EC50 [1, 3]: > 12 µM

Compound: CC(=O)O[C@@H]1c2c(ccc3ccc(=O)oc23)OC(C)(C)[C@@H]1OC(C)=O (relative stereo) [Compound 12]
- EC50 [1, 3]: > 289 µM

Compound: CC(C)CC(=O)O[C@@H]1c2c(ccc3ccc(=O)oc23)OC(C)(C)[C@@H]1OC(=O)CC(C)C (relative stereo) [Compound 13]
- EC50 ([1]; Human immunodeficiency virus 1, H9, Table 3, H9 lymphocytes): > 232 µM

Compound: CC(=O)O[C@@H]1[C@@H](OC(=O)c2cccc(Cl)c2)c2c(ccc3ccc(=O)oc23)OC1(C)C (relative stereo) [Compound 27]
- EC50 [1, 3]: > 45 µM

Compound: CC(C)CC(=O)O[C@@H]1[C@@H](OC(=O)c2cccc(Cl)c2)c2c(ccc3ccc(=O)oc23)OC1(C)C (relative stereo) [Compound 28]
- EC50 [1, 3]: 8.3 µM
- Therapeutic Index ([1]; Table 3, H9 lymphocytes): 1.2
- IC50 (uninfected H9 cells; [4]): 10 µM

Compound: CO[C@@H]1[C@@H](OC(=O)c2cccc(Cl)c2)c2c(ccc3ccc(=O)oc23)OC1(C)C (relative stereo) [Compound 29]
- EC50 [1, 3]: 241 µM
- Therapeutic Index ([1]; Table 3, H9 lymphocytes): > 0.2
- IC50 (uninfected H9 cells; [4]): > 48 µM

Compound: CC1(C)Oc2ccc3ccc(=O)oc3c2[C@H](OC(=O)c2cccc(Cl)c2)[C@H]1OCc1ccccc1 (relative stereo) [Compound 30]
- EC50 [1, 3]: 6.1 µM

Compound: CCC(C)C(=O)OC1C(O)c2c(ccc3ccc(=O)oc23)OC1(C)C (centres unmarked) [8 and 9]
- EC50 [1, 3]: > 57.8 µM

Compound: CCC(C)C(=O)OC1c2c(ccc3ccc(=O)oc23)OC(C)(C)C1O (centres unmarked) [10 and 11]
- EC50 [1, 3]: > 57.8 µM

Compound: CCC(C)C(=O)OC1c2c(ccc3ccc(=O)oc23)OC(C)(C)C1OC(=O)C(C)CC (centres unmarked) [14 and 15]
- EC50 [1, 3]: 7 µM

Compound: COc1c2ccoc2cc2oc(=O)ccc12 [Bergapten, bergapten, reference compound]
- EC50 [1, 5]: 30.1 µM
- IC50 [1, 6]: 30.1 µM
- Therapeutic Index [1, 7]: > 3.1
- Therapeutic Index ([1]; Table 14): > 3.1
- IC50 (uninfected H9 cells; [8]): > 92.6 µM
- IC50 (uninfected H9 cells; [9]): > 92.6 µM

Compound: C/C=C(/C)C(=O)OC(C)(C)[C@@H]1Cc2c(ccc3ccc(=O)oc23)O1 [Columbianadin, columbianadin, reference compound]
- EC50 [1, 5]: 4.6 µM
- IC50 [1, 6]: 4.6 µM
- Therapeutic Index [1, 7]: > 1.3
- Therapeutic Index ([1]; Table 14): > 1.3
- IC50 (uninfected H9 cells; [8]): > 6.1 µM
- IC50 (uninfected H9 cells; [9]): > 6.1 µM

Compound: CC1(C)Oc2ccc3ccc(=O)oc3c2[C@H](OC(=O)[C@@]23CC[C@@](C)(C(=O)O2)C3(C)C)[C@@H]1OC(=O)[C@@]12CC[C@@](C)(C(=O)O1)C2(C)C [Compound 17, 3',4'-Di-O-(-)-Camphanoyl-(-)-cis-Khellactone]
- EC50 [1, 3]: 51 µM
- EC50 [1, 10]: 51 µM
- Therapeutic Index [1, 7]: > 1.3
- Therapeutic Index ([1]; Table 3, H9 lymphocytes): > 33.3
- Therapeutic Index ([1]; Table 17, H9): > 33.3
- anti-HIV activity in H9 cells (in words) ([1]; acutely infected H9 cells): much less activity than that of compound 16
- anti-HIV activity in H9 cells (in words) ([1]; acutely infected H9 cells, listed as 3): much less anti-HIV activity than 2
- IC50 (uninfected H9 cells; [4]): 1700 µM
- IC50 (uninfected H9 cells; [11]): 1700 µM

Compound: CC1(C)Oc2ccc3ccc(=O)oc3c2[C@H](OC(=O)[C@@]23CC[C@@](C)(C(=O)O2)C3(C)C)[C@H]1OC(=O)[C@@]12CC[C@@](C)(C(=O)O1)C2(C)C [Compound 44, 31'4'-Di-O-(-)-Camphanoyl-(-)-trans-Khellactone]
- Therapeutic Index ([1]; Table 3, H9 lymphocytes): > 1
- Therapeutic Index ([1]; Table 14): 1.3
- Therapeutic Index ([1]; Table 17, H9): > 1
- anti-HIV activity in H9 cells (in words) ([1]; acutely infected H9 cells): much less activity than that of compound 16
- anti-HIV activity in H9 cells (in words) ([1]; acutely infected H9 cells, listed as 4): much less anti-HIV activity than 2

Compound: CC1(C)Oc2ccc3ccc(=O)oc3c2[C@@H](OC(=O)[C@@]23CC[C@@](C)(C(=O)O2)C3(C)C)[C@@H]1OC(=O)[C@@]12CC[C@@](C)(C(=O)O1)C2(C)C [Compound 45, 3', 4'-Di-O-(-)-Camphanoyl-(+)-trans-Khellactone]
- EC50 [1, 3]: 32 µM
- EC50 [1, 10]: 32 µM
- Therapeutic Index ([1]; Table 3, H9 lymphocytes): > 1
- Therapeutic Index ([1]; Table 17, H9): > 1
- anti-HIV activity in H9 cells (in words) ([1]; acutely infected H9 cells): much less activity than that of compound 16
- anti-HIV activity in H9 cells (in words) ([1]; acutely infected H9 cells, listed as 5): much less anti-HIV activity than 2
- IC50 (uninfected H9 cells; [4]): < 32 µM
- IC50 (uninfected H9 cells; [11]): > 32 µM

Compound: COc1cc2cc(Oc3ccc4ccc(=O)oc4c3)c(=O)oc2cc1O [Daphnoretin, daphnoretin, reference compound]
- IC50 (μM)^b [1, 12]: Inactive
- anti-HIV activity in H9 cells (in words) ([1]; acutely infected H9 cells): no activity
- EC50 [1, 13]: Inactive

Compound: CC(C)=CCOc1c2occc2cc2ccc(=O)oc12 [Imperatorin, imperatorin, reference compound]
- EC50 ([1]; Human immunodeficiency virus 1, H9, acutely infected H9 cells, concentration which inhibits viral replication by 50%, Inactive = No suppression of HIV-1 replication in H9 cells): 11.1 µM
- IC50 ([1]; Human immunodeficiency virus 1, H9, read-out: IC50 (μM)^b): 11.1 µM
- Therapeutic Index [1, 7]: > 6.7
- Therapeutic Index ([1]; Table 14): > 6.7
- IC50 (uninfected H9 cells; H9, concentration which inhibits uninfected cell growth by 50%): > 74.1 µM
- IC50 (uninfected H9 cells; H9, read-out: IC50 (μM)^a, Table 14, concentration which inhibits uninfected cell growth by 50%): > 74.1 µM

Compound: CC(C)=CCOc1c2ccoc2cc2oc(=O)ccc12 [Isoimperatorin, isoimperatorin, reference compound]
- EC50 [1, 5]: 40.7 µM
- IC50 [1, 6]: 40.7 µM
- Therapeutic Index [1, 7]: > 4.6
- Therapeutic Index ([1]; Table 14): > 4.6
- IC50 (uninfected H9 cells; [8]): > 185 µM
- IC50 (uninfected H9 cells; [9]): > 185 µM

Compound: CC(C)(O)[C@H]1Cc2cc3ccc(=O)oc3cc2O1 [Nodakenetin, nodakenetin, reference compound]
- IC50 (μM)^b [1, 12]: Inactive
- EC50 [1, 13]: Inactive

Compound: CC(C)(O[C@@H]1O[C@H](CO)[C@@H](O)[C@H](O)[C@H]1O)[C@H]1Cc2cc3ccc(=O)oc3cc2O1 [Nodakenin, nodakenin, reference compound]
- IC50 (μM)^b [1, 12]: Inactive
- EC50 [1, 13]: Inactive

Compound: CCCCCCCCCCCCCC(=O)O[C@@H]1[C@@H](C)[C@@]2(O)[C@@H](C=C(CO)C[C@]3(O)C(=O)C(C)=C[C@@H]23)[C@@H]2C(C)(C)[C@]12OC(C)=O [PMA, phorbol 12-myristate 13-acetate, reference compound]
- induction of virus replication compared to medium alone [2]: 27 fold

Compound: acetylnodakenin [reference compound]
- IC50 (μM)^b [1, 12]: Inactive
- EC50 [1, 13]: Inactive
